Patent publication US20070135462A1, “Combination therapy” (priority 2004, published 2007)

Assays:
HUVEC [1] = assay: HUVEC assay, VEGF-stimulated endothelial cell proliferation; type: cell-based; conditions: Homo sapiens, read-out: IC50 for inhibition of VEGF-stimulated endothelial cell proliferation
HUVEC [2] = assay: HUVEC assay, basal endothelial cell proliferation; type: cell-based; conditions: Homo sapiens, read-out: IC50 for inhibition of basal endothelial cell proliferation
Calu-6 tumour xenograft = Calu-6 tumour xenograft in vivo solid tumour model; conditions: once-daily oral, 28 days
range of models = assay: anti-tumour activity in a range of models; type: in vivo; conditions: once-daily oral administration

With `COc1cc2c(Oc3ccc4[nH]c(C)cc4c3F)ncnc2cc1OCCCN1CCCC1` [AZD2171, 4-(4-fluoro-2-methyl-1H-indol-5-yloxy)-6-methoxy-7-(3-(pyrrolidin-1-yl)propoxy)quinazoline] the IC50 (HUVEC [1]) was 0.4 ± 0.2 nM, the IC50 (HUVEC [2]) was over 500 nM and the “inhibition of growth of Calu-6 tumour xenograft” value (shortened to “inhibition”) (Calu-6 tumour xenograft; 1.5 mg/kg/day, P<0.01) was 49%. The “inhibition” value (Calu-6 tumour xenograft; 3 mg/kg/day, P<0.0001) was 69%, the “inhibition” value (Calu-6 tumour xenograft; 6 mg/kg/day, P<0.0001) was 91% and the anti-tumour activity (range of models) was “broad-spectrum anti-tumour activity”.
